In publication PMC4154066 (Chemical research in toxicology, 2013):
Like-named read-outs stand apart in the source and are kept apart here.

Columns and labels:
HepG2 cells [1] = assay: Oxygen consumption rate; assay type: cell-based, Human; conditions: for Relative percentage OCR 30 Sec: HepG2, 30 sec after compound at its MMP IC50; for Relative percentage OCR 30 Sec / Relative percentage OCR 1 h: basal OCR = 100%, mean ± SD; for Relative percentage OCR 1 h: HepG2, 1 h after compound at its MMP IC50; for Effect on OCR / FCCP-uncoupled OCR (in words): HepG2, compound at its MMP IC50, 30 sec and 1 h, then FCCP
HepG2 cells [2] = conditions: HepG2, 40 h; cited from earlier work
caspase 3/7 = conditions: HepG2, 16 h; cited from earlier work
HepG2 cells [3] = assay: cells; assay type: cell-based, Human; conditions: for Compound potency (IC50) LDH Release 5 h: HepG2, 5 h treatment; for Compound potency (IC50) LDH Release 5 h / Compound potency (IC50) LDH Release 1 h: mean ± SD, 3 independent experiments; for Compound potency (IC50) LDH Release 1 h: HepG2, 1 h treatment
[4] = system: mitochondrial membrane potential in HepG2 cells; assay: MMP assay, powder compound confirmation, fluorescence plate reader; assay type: cell-based, Human
caspase 9 = conditions: HepG2, 5 h; cited from earlier work
[5] = system: mitochondrial membrane potential in HepG2 cells; assay: qHTS MMP assay, primary screen; assay type: cell-based, Human; conditions: for IC50: Homo sapiens

Row | SMILES | Relative percentage OCR 30 Sec (HepG2 cells [1]) [%] | Relative percentage OCR 1 h (HepG2 cells [1]) [%] | Effect on OCR / FCCP-uncoupled OCR (in words) (HepG2 cells [1]) | cytotoxicity at 40 h (HepG2 cells [2]) | induction of caspase 3/7 (caspase 3/7) | Compound potency (IC50) LDH Release 5 h (HepG2 cells [3]) | other results
1 | O=c1cc(-c2ccc(O)cc2)oc2cc(O)cc(O)c12 [Apigenin] | 99.69 ± 1.13 | 107.51 ± 0.16 | did not affect the OCR or the FCCP-uncoupled OCR | the only exception | – | – | –
2 | Cl.N=C1C=CC(=C(c2ccc(N)cc2)c2ccc(N)cc2)C=C1 [Basic red 9 (p-Rosaniline HCl), p-Rosaniline HCl] | −9.78 ± 16.86 | 35.74 ± 2.42 | – | – | negative | negative | –
3 | Cc1cc(O)c2c(c1)C(=O)c1cc(O)cc(O)c1C2=O [Emodin] | 235.59 ± 56.54 | 210.48 ± 1.83 | acted as uncouplers | cytotoxic | – | – | –
4 | O=C1c2c(O)ccc([N+](=O)[O-])c2C(=O)c2c([N+](=O)[O-])ccc(O)c21 [1,8-Dihydroxy-4,5-dinitroanthraquinone] | 144.03 ± 7.3 | 150.09 ± 1.27 | acted as uncouplers | cytotoxic | – | – | –
5 | COc1cc(C2Oc3cc([C@H]4Oc5cc(O)cc(O)c5C(=O)[C@@H]4O)ccc3OC2CO)ccc1O (stereo partly drawn) [Silibinin] | 92.67 ± 0.69 | 95.66 ± 0.46 | significantly suppressed the FCCP uncoupled rates | – | – | – | Compound potency (IC50) Fluorescence readout 5 h ([4]; HepG2, powder compound confirmation, 5 h, mean ± SD, 4 independent experiments): weakly active; Emax ([4]; Homo sapiens, HepG2, 5 h, read-out: efficacy (maximal response)): 38.1%
6 | CN(C)c1ccc(C(=C2C=CC(=[N+](C)C)C=C2)c2ccc(N(C)C)cc2)cc1 [Hexamethyl-p-rosaniline chloride] | 132.56 ± 3.88 | 105.01 ± 1.65 | immediate uncoupling | – | induced caspase 3/7 | cytotoxic | activation of caspase 9 (caspase 9): seems to activate caspase 9; Compound potency (IC50) LDH Release 1 h (HepG2 cells [3]): Inconclusive; IC50 (HepG2 cells [3]; Homo sapiens, HepG2, 5 h, read-out: Compound potency (IC50) LDH Release 5 h): 56100 nM
7 | N#CC(C#N)=NNc1ccc(OC(F)(F)F)cc1 [FCCP, Carbonyl cyanide 4-(trifluoromethoxy)phenylhydrazone, reference compound] | – | – | – | – | – | – | IC50 ([5]; HepG2, 1 h, read-out: mean IC50 of positive control, 1 h): 810 ± 200 nM; IC50 ([5]; HepG2, 5 h, read-out: mean IC50 of positive control, 5 h): 1280 ± 320 nM
8 | CN(C)c1ccc(C(=C2C=CC(=[N+](C)C)C=C2)c2ccccc2)cc1.CN(C)c1ccc(C(=C2C=CC(=[N+](C)C)C=C2)c2ccccc2)cc1.O=C(O)C(=O)O.O=C([O-])C(=O)O.O=C([O-])C(=O)O [Malachite green oxalate] | 163.81 ± 17.5 | 97.14 ± 3.09 | immediate uncoupling | – | induced caspase 3/7 | cytotoxic | Primary screen outcome (MMP decrease) 1 h [5]: positive; Primary screen outcome (MMP decrease) 5 h [5]: positive; Compound potency (IC50) LDH Release 1 h (HepG2 cells [3]): Inactive
